Tests used:
[1] = target: T1, Deoxyhypusyl hydroxylase (Homo sapiens, UniProt Q9BU89); experiment: Cellular deoxyhypusyl hydroxylase (hypusine formation) inhibition, human B-cells and human smooth muscle cells; format: cell-based; conditions: concentration for half-maximal inhibition
T1 construct: endogenous in cells
T1 sequence (Q9BU89 1-302): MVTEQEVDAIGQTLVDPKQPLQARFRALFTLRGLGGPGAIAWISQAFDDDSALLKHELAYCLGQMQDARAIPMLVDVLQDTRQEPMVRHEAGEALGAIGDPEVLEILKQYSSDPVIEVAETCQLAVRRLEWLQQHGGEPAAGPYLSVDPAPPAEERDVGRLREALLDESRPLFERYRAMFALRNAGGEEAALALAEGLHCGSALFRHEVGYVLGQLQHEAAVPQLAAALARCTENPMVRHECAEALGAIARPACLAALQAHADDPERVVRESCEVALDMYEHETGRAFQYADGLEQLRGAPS
Protocol: (§1) The cell-free enzyme assay was performed to test a pilot peptidomimetic which can be equipped with hydroxypyridone warheads. The cell culture studies were performed to establish the inherent inhibitory potency of such hydroxypyridones.
DOHH Assay. The intracellular conversion of peptide-bound deoxyhypusine to peptidyl hypusine was determined after preincubation of human T lymphocyte-derived cells (i.e. ACH-2) [Clouse et al., J. Immunol. 142, 431-438 (1989), which is hereby incorporated by reference] with the hypusine inhibitors mimosine and HK-1 for 60 minutes, followed by labeling for 21 hours with ^3 H-spermidine (3.75 μCi/ml) in wells containing 3×10^6 cells suspended in 8 ml of serum-supplemented and antibiotic-containing RPMI 1640 medium. Cells were then split into two groups, one of them being harvested immediately to assess degree of DOHH inhibition, and the other harvested after transfer of the cells into inhibitor-free medium for 2 hours to measure resumption of DOHH activity. Harvesting consisted in precipitation of washed cells with 10% TCA containing 1 mM each of putrescine, spermidine, and spermine. Cellular proteins from each sample were then hydrolyzed in 6N HCl at 110° C. for 16 hours. The hydrolysate was analyzed for labeled amino acids on an amino acid analyzer by published methods [Park et al., J. Biol. Chem., 257, 7217-7222 (1982), which is hereby incorporated by reference]. The retention times of hypusine and deoxyhypusine were determined from standards. Similar studies were performed in human B-cells and human smooth muscle cells.
The concentration required for half-maximal inhibition (ID50) of the cellular enzyme activity is identified for each compound.

[2] = system: deoxyhypusyl hydroxylase (DOHH); experiment: Cell-free DOHH assay with purified enzyme and unhydroxylated eIF-5A precursor; format: biochemical; conditions: purified rat enzyme, unhydroxylated eIF-5A, FIG. 4B
Protocol: The graph gives the chromatographic profile of metabolically labeled hypusine/deoxyhypusine obtained after incubation of the purified rat enzyme with unhydroxylated eIF-5A in the absence (open squares) and presence (closed squares) of mimetic III. […] Peptides of appropriate structure or peptidomimetics like mimetic III can serve as "carriers" for a reactive moiety termed "warhead" that, by virture of its attachment to the carrier, becomes precisely oriented to interact optimally with the active site metal ion of DOHH. In the case of mimetic III, such a warhead moiety can be attached at the site indicated by the asterisk in FIG. 4A.
as §1
DOHH Assay. Enzyme activity was purified and determined, as described by Abbruzzese et al., J Biol Chem 261:3085-9 (1986), which is hereby incorporated by reference. Briefly, the enzyme is offered as labeled deoxyhypusine-containing eIF-5A precursor, and, following standard incubation conditions, the conversion into hypusine residues is measured by chromatographic amino acid separation of the hydrolyzed proteins. […] Biophys. Acta, 1221, 115-124 (1994), which is hereby incorporated by reference]. […]

SMILES	Deoxyhypusyl hydroxylase ID50 (cellular) [1]	deoxyhypusine-to-hypusine conversion in presence of compound [2]	deoxyhypusine-to-hypusine conversion in presence of compound ([2]; listed as mimetic of Formula III)
CCn1ccc(=O)c(O)c1C [HK-26]	58	–	–
CCc1c(O)c(=O)ccn1CC [HK-2]	50	–	–
COCCn1ccc(=O)c(O)c1C [HK-15]	60	–	–
CCCn1ccc(=O)c(O)c1C [HK-27]	50	–	–
C=CCn1ccc(=O)c(O)c1C [HK-16]	50	–	–
NC(CO)C1CCC(=O)NC(CO)C(=O)N(C(Cc2ccccc2)C(=O)O)NC1=O (stereo not shown) [mimetic III]	–	clearly reduced	the deoxyhypusine-to-hypusine conversion was suppressed

— patent US5849587A, “Method of inhibiting viral replication in eukaryotic cells and of inducing apoptosis of virally-infected cells” (Cornell Research Foundation, Inc., priority 1995, dated 1998)
